Test results: ChEMBL document CHEMBL5244208, “Privileged scaffolds as MAO inhibitors: Retrospect and prospects” (Eur J Med Chem, 2018)
Several values for one entry are separate records, joined by “and”; a condition that tells them apart may be missing. Equal entries are not always repeated.

Each molecule was assayed against T1, Amine oxidase [flavin-containing] A (Rattus norvegicus, UniProt P21396) (assay: In vivo inhibition of MAO-A in Wistar rat with assessed as decrease in MAO activity in […] at 10 to 30 mg/kg, ip measured after 2 hrs). Conditions: dose 10-30 mg/kg.
T1 sequence (P21396 whole entry): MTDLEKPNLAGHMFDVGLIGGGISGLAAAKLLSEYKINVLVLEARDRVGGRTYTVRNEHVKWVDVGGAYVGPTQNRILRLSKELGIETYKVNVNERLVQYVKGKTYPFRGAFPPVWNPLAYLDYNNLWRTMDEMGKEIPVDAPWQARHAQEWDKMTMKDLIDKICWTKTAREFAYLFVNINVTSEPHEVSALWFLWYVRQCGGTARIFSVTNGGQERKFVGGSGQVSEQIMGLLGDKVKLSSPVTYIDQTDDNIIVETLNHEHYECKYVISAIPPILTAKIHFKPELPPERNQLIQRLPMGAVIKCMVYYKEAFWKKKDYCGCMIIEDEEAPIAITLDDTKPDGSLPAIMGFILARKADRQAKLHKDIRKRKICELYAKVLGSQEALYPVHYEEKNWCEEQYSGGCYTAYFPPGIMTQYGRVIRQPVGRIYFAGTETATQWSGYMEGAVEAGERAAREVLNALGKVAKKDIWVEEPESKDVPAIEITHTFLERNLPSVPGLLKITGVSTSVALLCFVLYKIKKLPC
Assay type: functional, organism-based
Parameters: scale not given: the % may be the effect or the level left

Row | Structure (SMILES) | Activity [%]
1 | C[C@]12CC[C@H](O)CC1=CC[C@@H]1[C@@H]2CC[C@]2(C)C(=O)CC[C@@H]12 [PRASTERONE] | -24

The molecules below were run against T2, Amine oxidase [flavin-containing] B (Homo sapiens, UniProt P27338) (assay: Inhibition of MAO-B (unknown origin)). Conditions: not given.
T2 sequence (P27338 whole entry): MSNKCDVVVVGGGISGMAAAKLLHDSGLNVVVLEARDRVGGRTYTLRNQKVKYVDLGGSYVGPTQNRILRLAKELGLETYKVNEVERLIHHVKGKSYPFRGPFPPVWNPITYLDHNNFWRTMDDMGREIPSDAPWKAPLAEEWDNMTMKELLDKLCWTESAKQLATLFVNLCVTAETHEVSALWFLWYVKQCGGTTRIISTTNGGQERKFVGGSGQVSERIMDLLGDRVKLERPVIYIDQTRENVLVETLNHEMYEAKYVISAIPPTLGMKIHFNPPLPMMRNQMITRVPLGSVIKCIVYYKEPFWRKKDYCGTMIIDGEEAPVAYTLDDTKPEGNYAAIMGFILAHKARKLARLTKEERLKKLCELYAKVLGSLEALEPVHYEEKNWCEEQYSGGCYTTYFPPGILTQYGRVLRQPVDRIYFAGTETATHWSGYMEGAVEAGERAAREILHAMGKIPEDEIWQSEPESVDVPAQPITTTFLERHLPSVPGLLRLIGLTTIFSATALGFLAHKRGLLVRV

Row | Structure (SMILES) | Ki [µM]
2 | NS(=O)(=O)Cc1noc2ccccc12 [ZONISAMIDE] | 30.8

Same assay, conditions: read-out: IC50

Row | Structure (SMILES) | IC50 [µM]
3 | COc1ccc(/C(=C\F)CN)cc1OC | 0.01

Same assay, conditions: read-out: pIC50 (converted)

Row | Structure (SMILES) | IC50 [µM]
4 | C/C(=C\COc1ccc2ccc(=O)oc2c1)C1=CC(=O)C(C)(C)O1 [GEIPARVARIN] | 24
5 | O=c1oc2ccc(Cl)cc2cc1Cl | 0.01

The molecules below were run against T3, Amine oxidase [flavin-containing] A (Homo sapiens, UniProt P21397) (assay: Inhibition of MAO-A (unknown origin) incubated for 60 mins by fluorometric spectrophotometry analysis). Conditions: not given.
T3 sequence (P21397 whole entry): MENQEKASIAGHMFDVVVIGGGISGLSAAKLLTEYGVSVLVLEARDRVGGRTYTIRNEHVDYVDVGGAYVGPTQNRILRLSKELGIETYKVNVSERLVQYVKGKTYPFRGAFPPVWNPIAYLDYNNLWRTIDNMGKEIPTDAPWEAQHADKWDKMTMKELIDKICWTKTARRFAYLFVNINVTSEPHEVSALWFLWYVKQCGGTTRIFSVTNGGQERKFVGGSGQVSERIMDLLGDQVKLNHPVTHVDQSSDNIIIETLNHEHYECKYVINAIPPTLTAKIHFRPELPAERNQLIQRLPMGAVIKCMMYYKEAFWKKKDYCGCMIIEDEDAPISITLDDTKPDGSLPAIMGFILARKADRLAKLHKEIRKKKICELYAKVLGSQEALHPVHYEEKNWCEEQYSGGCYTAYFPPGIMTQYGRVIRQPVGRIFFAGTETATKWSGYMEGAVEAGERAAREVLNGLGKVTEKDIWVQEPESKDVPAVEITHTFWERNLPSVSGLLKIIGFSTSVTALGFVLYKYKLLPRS

Row | Structure (SMILES) | IC50
6 | O=c1c(O[C@@H]2O[C@H](CO)[C@@H](O)[C@H](O)[C@H]2O)c(-c2ccc(O)c(O)c2)oc2cc(O)cc(O)c12 [ISOQUERCETIN] | 19.1 µM
7 | C[C@@H]1O[C@@H](OC[C@H]2O[C@@H](Oc3c(-c4ccc(O)c(O)c4)oc4cc(O)cc(O)c4c3=O)[C@H](O)[C@@H](O)[C@@H]2O)[C@H](O)[C@H](O)[C@H]1O [RUTIN] | 3.89 µM
8 | O=c1c(O)c(-c2ccc(O)c(O)c2)oc2cc(O)cc(O)c12 [QUERCETIN] | 11.6 µM and 10.9 µM

The molecules below were run against T3, Amine oxidase [flavin-containing] A (assay: Inhibition of MAO-A (unknown origin)). Conditions: not given.

Row | Structure (SMILES) | IC50 [µM] | Ki [µM]
9 | C[C@@H]1O[C@@H](Oc2c(-c3ccc(O)c(O)c3)oc3cc(O)cc(O)c3c2=O)[C@H](O)[C@H](O)[C@H]1O [QUERCITRIN] | 18 | 

Each molecule was assayed against Acetylcholinesterase (Homo sapiens, UniProt P22303) (assay: Inhibition of AChE (unknown origin) using acetylthiocholine chloride as substrate incubated for 5 mins by DTNB reagent based Ellman's method). Conditions: not given.
Chain of Acetylcholinesterase (P22303 whole entry): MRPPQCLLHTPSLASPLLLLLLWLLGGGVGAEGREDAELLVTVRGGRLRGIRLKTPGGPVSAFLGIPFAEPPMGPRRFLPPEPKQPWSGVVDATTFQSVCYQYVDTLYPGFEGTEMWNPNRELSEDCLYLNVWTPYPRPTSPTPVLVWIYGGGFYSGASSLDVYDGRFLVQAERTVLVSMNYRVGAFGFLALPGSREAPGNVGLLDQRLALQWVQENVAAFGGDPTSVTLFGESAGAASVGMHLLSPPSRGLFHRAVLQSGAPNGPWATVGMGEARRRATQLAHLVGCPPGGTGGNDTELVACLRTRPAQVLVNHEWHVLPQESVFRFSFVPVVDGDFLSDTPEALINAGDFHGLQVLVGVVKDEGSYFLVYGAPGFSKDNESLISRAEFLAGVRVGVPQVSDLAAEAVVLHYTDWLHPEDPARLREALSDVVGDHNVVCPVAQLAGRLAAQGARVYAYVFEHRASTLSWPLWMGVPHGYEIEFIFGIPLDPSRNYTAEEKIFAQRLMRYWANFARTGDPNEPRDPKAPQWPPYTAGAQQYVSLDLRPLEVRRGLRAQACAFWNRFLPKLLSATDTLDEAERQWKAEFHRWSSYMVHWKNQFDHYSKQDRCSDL

Row | Structure (SMILES) | IC50 [µM]
11 | Cc1ccccc1COc1ccc2c(C)c(C)c(=O)oc2c1 | 3
12 | O=c1ccoc2ccc(Oc3ccccc3)cc12 | 3
13 | Cc1c(C)c2ccc(OCc3ccc(F)c(F)c3)cc2oc1=O | 3
14 | Cc1cc(=O)c2cc(Oc3ccccc3)ccc2o1 | 3
15 | Cc1c(C)c2ccc(OCc3ccccc3)cc2oc1=O | 3
16 | Cc1c(C)c2ccc(OCc3cccc(N)c3)cc2oc1=O | 3
17 | Cc1c(C)c2ccc(OCCc3ccccc3)cc2oc1=O | 3
18 | Cc1c(C)c2ccc(OCc3cc(F)cc(F)c3)cc2oc1=O | 3
19 | Cc1c(C)c2ccc(OCc3cccc(O)c3)cc2oc1=O | 3

The molecules below were run against T3, Amine oxidase [flavin-containing] A (assay: Inhibition of human recombinant MAO-A). Conditions: not given.

Row | Structure (SMILES) | IC50 [µM]
20 | CC(=O)Nc1ccc2c(c1)S(=O)(=O)c1cc(C)ccc1C2=O | 0.01
21 | CC(=O)Nc1cc2c(cc1NC(C)=O)S(=O)(=O)c1ccccc1C2 | 0.01
22 | CC(=O)Nc1cccc2c1C(=O)c1ccccc1C2=O | 0.01
23 | CC(=O)Nc1ccc2c(c1)S(=O)(=O)c1cc(NC(C)=O)ccc1N2C | 0.01
24 | CCc1ccc2c(c1)S(=O)(=O)c1cc(NC(C)=O)ccc1C2=O | 0.01
25 | CC(=O)Nc1ccc2c(c1)S(=O)(=O)c1ccccc1O2 | 0.01
26 | CC(=O)Nc1ccc2c(c1)S(=O)(=O)c1ccccc1N2 | 0.01
27 | O=CN(C=O)c1ccc2c(c1)S(=O)(=O)c1ccccc1C2=O | 0.01
28 | CC(=O)Nc1ccc2c(O)c3ccccc3nc2c1 | 0.01
29 | CC(=O)Nc1ccc2c(c1)S(=O)(=O)c1ccccc1C2=O | 0.01
30 | CC(=O)Nc1ccc2c(c1)C(=O)c1ccccc1C2=O | 0.01
31 | CC(=O)Nc1ccc2c(c1)S(=O)(=O)c1ccccc1N2C | 0.01
32 | CC(=O)Nc1ccc2c(c1)C(=O)c1ccccc1S2(=O)=O | 0.01
33 | CCCc1ccc2c(c1)S(=O)(=O)c1cc(NC(C)=O)ccc1C2=O | 0.01

Each molecule was assayed against T2, Amine oxidase [flavin-containing] B (assay: Inhibition of human MAO-B). Conditions: not given.

Row | Structure (SMILES) | IC50 [µM]
34 | OCCn1nnc(-c2ccc(OCc3ccccc3)cc2)n1 | 0.002
35 | Oc1ccc(/C=C/c2cc(O)cc3c2[C@@H](c2cc(O)cc(O)c2)C(c2ccc(O)cc2)O3)cc1 (stereo not given in full) | 5
36 | OCCn1nnc(-c2ccc(OCc3cccc(Cl)c3)cc2)n1 | 0.002
37 | N#CCCn1nnc(-c2ccc(OCc3cccc(Cl)c3)cc2)n1 | 8
38 | N#CCCn1nnc(-c2ccc(OCc3ccccc3)cc2)n1 | 8

Each molecule was assayed against T3, Amine oxidase [flavin-containing] A (assay: Irreversible inhibition of human recombinant MAO-A). Conditions: not given.

Row | Structure (SMILES) | Ki [µM]
39 | C#CCN(C)Cc1cccc(C(=O)NC2CC(C)(C)N([O])C(C)(C)C2)c1 | 268

These molecules were tested against T2, Amine oxidase [flavin-containing] B (assay: Irreversible inhibition of human recombinant MAO-B). Conditions: not given.

Row | Structure (SMILES) | Ki [µM]
40 | C#CCN(C)Cc1ccc(C(=O)NC2CC(C)(C)N([O])C(C)(C)C2)cc1 | 15

These molecules were tested against T1, Amine oxidase [flavin-containing] A (assay: Inhibition of rat MAO-A). Conditions: not given.

Row | Structure (SMILES) | IC50 [µM]
41 | O=C1C[C@@H](c2ccc(O)cc2)Oc2cc(O)cc(O)c21 [NARINGENIN] | 342

These molecules were tested against T3, Amine oxidase [flavin-containing] A (assay: Inhibition of recombinant human MAO-A using kynuramine as substrate incubated for 20 mins by spectrophotometry analysis). Conditions: not given.

Row | Structure (SMILES) | Ki [µM]
42 | COC[C@H]1CN(n2cccc2)C(=O)O1 | 0.0049

These molecules were tested against T3, Amine oxidase [flavin-containing] A (assay: Inhibition of human MAO-A using tyramine hydrochloride as substrate preincubated for 30 mins followed by substrate addition and measured for 1 hr by microplate reader method). Conditions: not given.

Row | Structure (SMILES) | IC50 [µM]
43 | O=C(c1cc(O)cc(O)c1)c1c(O[C@@H]2OC[C@@H](O)[C@H](O)[C@H]2O)cc(O)cc1O[C@H]1O[C@@H](CO)[C@H](O)[C@H]1O | 726
44 | COc1cc(O)cc(O[C@H]2O[C@@H](CO)[C@H](O)[C@H]2O)c1C(=O)c1cc(O)cc(O)c1 | 310
45 | O=C(c1cc(O)cc(O)c1)c1c(O)cc(O)cc1O[C@H]1O[C@@H](CO)[C@H](O)[C@H]1O | 111
